Source: patent US10947546B2, “Methods and compositions for translational profiling and molecular phenotyping” (The Rockefeller University, priority 2008, dated 2021)

Columns and labels:
[1] = system: Ferritin heavy chain mRNA (Fth1); conditions: 100 μg/ml ferric ammonium citrate, 36 hours, HEK293T
Procedure: Rapid immunoaffinity purification of polysomes was achieved from HEK293T cells transiently transfected with the eGFP-L10a transgene but not mock transfected cells. HEK293T cells transfected with eGFP-L10a were homogenized in lysis buffer. The solubilized and clarified lysate was loaded onto a linear density (20-50% w/w) gradient of sucrose and centrifuged for 2 hours at 4° C. using a Beckman SW41 rotor at 40,000 r. p. m. (200,000×g). 750 μl fractions were collected as absorbance at 254 nm was monitored with an ISCO UA-6 UV detector.
HEK293T cells were transiently transfected (˜30% efficiency) with eGFP (mock) or eGFP-L10a constructs and grown in medium alone (no treatment, NT) or in medium supplemented with 100 μg/ml ferric ammonium citrate [pH 7.0] (iron) for 36 hours. […] (b) The post-mitochondrial supernatants of untreated or iron-treated cells were loaded onto linear sucrose gradients (20-50% w/w). After velocity sedimentation, fractions (direction of sedimentation noted by arrow) were collected while UV absorbance (254 nm) was being measured. […] Non-polysome and polysome gradient fractions were generated as indicated. To avoid Ferritin mRNAs associated with mRNPs, only heavier polysomes (with greater than 4 ribosomes) were included in the polysome fraction. […] (e) To determine if the translating ribosome affinity purification (TRAP) methodology could faithfully reflect the changes observed in c, a direct eGFP immunoprecipitation of post-mitochondrial supernatants (whole cell lysates, unfractionated) was performed.
In some experiments, 20 ng of purified RNA was used to produce cDNA with a NuGEN WT Ovation kit (NuGEN Technologies, San Carlos, Calif.) and the resulting cDNA was purified and quantified. 10 ng of cDNA was used for each real-time gene expression assay. Applied Biosystems (Foster City, Calif.) TaqMan pre-designed gene expression assays were used, following the manufacturer's instructions and using an Applied Biosystems 7900 Sequence Detection System.
Table 10). To provide an initial test of the data, quantitative PCR studies were carried out using independent biological BACarray D1 and D2 samples and a different cDNA amplification procedure (A. Alexa, J. Rahnenfuhrer, T. Lengauer, Bioinformatics 22, 1600-7 (2006)).

[2] = system: BAC D2 striatopallidal medium spiny neurons; assay: 2PLSM dendritic Ca2+ imaging on focal S1P application (functional Gpr6 receptors), BAC D2 neurons in brain slices; format: cell-based, mouse; conditions: for Percent increase in fluorescence (ΔG/R), median: S1P puff 10 μM
From the text: Gpr6 encodes a G protein-coupled receptor for the lysophospholipid sphingosine 1-phosphate (S1P) (A. Ignatov, J. Lintzel, H. J. Kreienkamp, H. C. Schaller, Biochem Biophys Res Commun 311, 329-36 (Nov. 14, 2003)). In heterologous expression systems, S1P activation of Gpr6 receptors induces the release of Ca2+ from intracellular stores. […] To determine whether functional Gpr6 receptors were selectively expressed in striatopallidal neurons, BAC D2 striatopallidal or BAC D1 striatonigral medium spiny neurons (expressing soluble eGFP) were identified in brain slices and patch clamped (FIG. 30) (M. Day et al., Nat Neurosci 9, 251-9 (February, 2006)). Neurons were loaded with Alexa 594 (50 μM) to allow dendrites to be seen and with Fluo-4 (200 μM) to monitor intracellular Ca2+ concentration using 2-photon laser scanning microscopy (2PLSM). After allowing the dyes to equilibrate, neurons were imaged and a second pipette containing S1P (10 μM) was brought into close physical proximity to a dendrite, 60-80 microns from the soma (a and b). […] Nairn, P. Greengard, J Neurochem 72, 2015-21 (May, 1999)) and/or inhibition of adenylyl cyclase type 5 (AC5; Adcy5) (C.
Striatonigral (BAC D1) or striatopallidal (BAC D2) neurons expressing soluble eGFP (S. Falcon, R. Person, Bioinformatics 23, 257-8 (2007)) in 275 μm thick corticostriatal slices were identified by somatic eGFP fluorescence. eGFP 2PLSM green signals (500-550 nm) were acquired from eGFP+ BAC Drd2 neurons using 810 nm excitation, while eGFP+ BAC Drd1 neurons required 900 nm excitation. eGFP+ MSNs were then patched using infrared-differential interference contrast (IR-DIC) video microscopy with a Hamamatsu C2400 Newvicon camera/controller system (Hamamatsu, Japan) and a 60X/0.9NA water-dipping lens. […] The pipette solution contained the following (in mM): 135 KMeSO4 (ICN Biomedicals Inc., Aurora, Ohio), 5 KCl, 10 HEPES, 2 MgATP, 0.2 Na2GTP, and 0.1 spermine, pH=7.25-7.3 with KOH, 270 mOsm/l. As measured in the bath, the pipette resistance was ˜4 MΩ. Seals were formed in voltage-clamp mode on the cell somas with series resistance >1 GΩ. After seal rupture in whole-cell configuration the series-resistance decreased to 10-15 MΩ. […] The thapsigargin was initially dissolved in DMSO at a concentration of 10 mM. This stock was then diluted 1000× in the internal recording solution. Following break in, the internal solution was allowed to approach diffusional equilibrium for at least 15 min prior to imaging. The cells were voltage clamped at −70 mV and monitored for somatic depolarization.
For the duration of the recordings, 2PLSM green and red signals (570-620 nm) were acquired using 810 nm excitation with 90 MHz pulse repetition frequency and ˜250 fs pulse duration at the sample plane.

[3] = system: BAC D1 striatonigral medium spiny neurons; assay: 2PLSM dendritic Ca2+ imaging on focal S1P application, BAC D1 neurons in brain slices; format: cell-based, mouse; conditions: S1P puff 10 μM, n=4
From the text: Gpr6 encodes a G protein-coupled receptor for the lysophospholipid sphingosine 1-phosphate (S1P) (A. Ignatov, J. Lintzel, H. J. Kreienkamp, H. C. Schaller, Biochem Biophys Res Commun 311, 329-36 (Nov. 14, 2003)). In heterologous expression systems, S1P activation of Gpr6 receptors induces the release of Ca2+ from intracellular stores. […] To determine whether functional Gpr6 receptors were selectively expressed in striatopallidal neurons, BAC D2 striatopallidal or BAC D1 striatonigral medium spiny neurons (expressing soluble eGFP) were identified in brain slices and patch clamped (FIG. 30) (M. Day et al., Nat Neurosci 9, 251-9 (February, 2006)). […]
Striatonigral (BAC D1) or striatopallidal (BAC D2) neurons expressing soluble eGFP (S. Falcon, R. Person, Bioinformatics 23, 257-8 (2007)) in 275 μm thick corticostriatal slices were identified by somatic eGFP fluorescence. eGFP 2PLSM green signals (500-550 nm) were acquired from eGFP+ BAC Drd2 neurons using 810 nm excitation, while eGFP+ BAC Drd1 neurons required 900 nm excitation. eGFP+ MSNs were then patched using infrared-differential interference contrast (IR-DIC) video microscopy with a Hamamatsu C2400 Newvicon camera/controller system (Hamamatsu, Japan) and a 60X/0.9NA water-dipping lens. […] As measured in the bath, the pipette resistance was ˜4 MΩ. […] The cells were voltage clamped at −70 mV and monitored for somatic depolarization. […]

[4] = system: DARPP-32; assay: Threonine 34 DARPP-32 phosphorylation after S1P treatment of striatal slices; format: cell-based; conditions: 5 minutes after S1P addition, 1.04±0.17 at 0 minutes, n=12
[5] = system: GABAA receptor mIPSCs in BAC D2 striatopallidal neurons; assay: Whole-cell voltage-clamp GABAergic mIPSC recording after 15-day cocaine treatment, BAC D2 neurons; format: in vivo, mouse; conditions: cocaine 15 days
[6] = system: GABAA receptor mIPSCs in BAC D1 striatonigral neurons; assay: Whole-cell voltage-clamp GABAergic mIPSC recording after 15-day cocaine treatment, BAC D1 neurons
[7] = iron treatment, range from replicates

In the case of ferric ammonium citrate [iron], the “iron-induced fold-change in Fth1 mRNA levels relative to Actb mRNA, polysome IP samples” value ([1]; IP from polysomes) is reported as 2.01-2.43, the “iron-induced fold-change in Fth1 mRNA levels relative to Actb mRNA, direct IP samples” value ([1]; IP from whole cell lysates) is reported as 1.80-1.93 and the “range of fold-change of Fth1 mRNA in non-polysome fraction” value [1, 7] is reported as 0.16-0.22. For the same molecule, the “range of fold-change of Fth1 mRNA in polysome fraction” value [1, 7] was 1.83-2.15.
For `CCCCCCCCCCCCC/C=C/[C@@H](O)[C@@H](N)COP(=O)(O)O` [S1P, sphingosine 1-phosphate], the “Percent increase in fluorescence (ΔG/R), median” value ([2]; BAC D2 medium spiny neurons, n=6) was 146%, the “Percent increase in fluorescence (ΔG/R), median” value ([2]; thapsigargin loaded BAC D2 medium spiny neurons, n=4) was 4% and the “dendritic Ca2+ levels” value ([2]; focal application of S1P 10 μM, clamped at −70 mV, BAC D2) was “consistently and reversibly increased”. The “Percent increase in fluorescence (ΔG/R), median” value [3] was 17% and the “threonine 34 DARPP-32 phosphorylation” value [4] was 0.58 normalized units.
With `C/C=C(/C)C(=O)O[C@H]1C(C)=C2[C@H]([C@@H]1OC(=O)CCCCCCC)[C@@](C)(OC(C)=O)C[C@H](OC(=O)CCC)[C@@]1(O)[C@H]2OC(=O)[C@@]1(C)O` [thapsigargin] the “response to S1P in BAC D2 striatopallidal neurons” value ([2]; thapsigargin 10 μM in pipette, depletion of intracellular Ca2+ stores) was “abolished”.
`COC(=O)[C@H]1[C@@H](OC(=O)c2ccccc2)C[C@@H]2CC[C@H]1N2C` [cocaine] was tested, and the “mean 10-90% rise times of mIPSCs” value ([5]; saline 0.65±0.007) was 0.64±0.010, the “mean mIPSC frequency” value ([5]; saline 0.72±0.05 Hz) was 0.78±0.07 Hz and the “mean number of channels per synapse (N)” value ([5]; saline 33.8±2.7) was 33.0±1.6. For the same molecule, the “number of small amplitude mIPSCs (<75 pA) in equal length records (7 min)” value ([5]; saline 68.1±9.7) was 71.7±7.5, the “number of receptors per synapse (N), representative variance-mean current plot” value ([5]; saline N=29) was 31 and the “unitary receptor conductance (g), representative variance-mean current plot” value ([5]; saline g=33 pS) was 29 pS. The “mIPSC frequency, median” value ([6]; cocaine 20 mg/kg/day 15 days, saline median 0.82 Hz) was 1.03 Hz, the “mean 10-90% rise times of mIPSCs” value ([6]; cocaine 15 days, saline 0.64±0.008) was 0.65±0.006 and the “mean number of channels per synapse (N)” value ([6]; cocaine 15 days, saline 33.1±1.4) was 29.3±1.0. The “number of small amplitude mIPSCs (<75 pA) in equal length records (7 min)” value ([6]; cocaine 15 days, saline 79.4±8.2) was 104.2±6.3, the “GABAA receptors (N) per synapse, representative variance-mean current plot” value ([6]; cocaine 15 days, saline N=33) was 27 and the “unitary receptor conductance (g), representative variance-mean current plot” value ([6]; cocaine 15 days, saline g=31 pS) was 30 pS.
